# Data as given in publication PMC8822754, “Chloride intracellular channel 1 activity is not required for glioblastoma development but its inhibition dictates glioma stem cell responsivity to novel biguanide derivatives” (Journal of Experimental & Clinical Cancer Research : CR, 2022).
# Biological target: Chloride intracellular channel-1 (CLIC1) (Homo sapiens, UniProt O00299)
# Assay: microscale thermophoresis (also CLIC1 current block by patch clamp in GBM3 GSCs)
# Assay type: binding
# Set-up: recombinant CLIC1, NHS dye-labelled
row,SMILES,Kd [µM]
1,COc1ccc(/N=C(\N)N=C(N)N)cc1 [Q48],15.6 ± 1.9
2,COc1ccc(N2C(N)=NC(N)=NC2(C)C)cc1 [Q54],1900 ± 500
